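Grown in 96-well plates, cells were treated for 48 hours with each compound at five concentrations. Insufficient inhibition: endpoint recorded as highest concentration tested. GI50 is the concentration that inhibits growth by half.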 Calls of active or inactive are those of the source. Rule as the data show it: active = GI50 up to about 1.1 µM and inactive = higher.

Some test systems named below: MCF7; SK-MEL-28; COLO 205; DU-145; SNB-75; OVCAR-8; A549; MDA-MB-435; HOP-92; SN12C; Malme-3M; ACHN; 786-0; BT-549; SW-620; NCI-H522; NCI/ADR-RES; HCT-15; CCRF-CEM; T47D.
Test in all cases: inhibition of tumour cell growth, NCI panel, 48 h

In the case of `CCOC(=O)c1c(N2CCCC2)[nH]c(=O)c(C(c2ccc(OC)cc2)c2c(O)c(C(=O)OCC)c(N3CCCC3)[nH]c2=O)c1O`, the GI50 in the experiment on MCF7 was > 100 µM (inactive); in the experiment on SK-MEL-28, > 100 µM (inactive); with COLO 205, > 100 µM (inactive); in the experiment on DU-145 it was > 100 µM (inactive); with SNB-75, 21.3 µM (inactive); in the experiment with OVCAR-8, 86.1 µM (inactive). The GI50 in the experiment on A549 was > 100 µM (inactive); with MDA-MB-435 it was > 100 µM (inactive); with HOP-92 it was 12.3 µM (inactive); in the experiment on SN12C, > 100 µM (inactive); with Malme-3M it was > 100 µM (inactive); in the experiment with ACHN it was 56 µM (inactive). In addition, the GI50 in the experiment on 786-0 was > 100 µM (inactive); in the experiment with BT-549, 76 µM (inactive); in the experiment on SW-620, > 100 µM (inactive); in the experiment on NCI-H522, > 100 µM (inactive); in the experiment on NCI/ADR-RES it was > 100 µM (inactive); in the experiment with HCT-15, greater than 100 µM. Also, the GI50 in the experiment on CCRF-CEM and with T47D was > 100 µM (inactive) throughout.

With `Oc1c2c(c(O)c3ccccc13)C1(N=N2)c2ccccc2Oc2ccccc21`, the GI50 is 3.09 µM (inactive) in the experiment on MCF7; 11.4 µM (inactive) in the experiment with SK-MEL-28; 13 µM (inactive) in the experiment with COLO 205; 8.73 µM (inactive) in the experiment with DU-145; 17.3 µM (inactive) in the experiment on SNB-75; 3.2 µM (inactive) with OVCAR-8. In addition, the GI50 with A549 is 10 µM (inactive); in the experiment with MDA-MB-435, 4.38 µM (inactive); in the experiment on HOP-92, 15.8 µM (inactive); with SN12C it was 6.46 µM (inactive); in the experiment with Malme-3M, 2.48 µM (inactive); with ACHN, 3.79 µM (inactive). Moreover, the GI50 in the experiment with 786-0 was 3.2 µM (inactive); in the experiment with BT-549, 10.7 µM (inactive); in the experiment on SW-620 it was 3.64 µM (inactive); with NCI-H522, 1.98 µM (inactive); in the experiment with NCI/ADR-RES, 9.57 µM (inactive); in the experiment with HCT-15 it was 2.65 µM. In addition, the GI50 in the experiment on CCRF-CEM was 3.2 µM (inactive); in the experiment with T47D, 7.55 µM (inactive).

Take `COc1ccc(C(=O)NC2=C(Cl)C(=O)c3ccccc3C2=O)cc1`: the GI50 in the experiment on MCF7 is 2.75 µM (inactive); in the experiment with SK-MEL-28, 1.15 µM (inactive); in the experiment with COLO 205, 1.89 µM (inactive); with DU-145, 3.86 µM (inactive); in the experiment with SNB-75, 2.56 µM (inactive); in the experiment on OVCAR-8, 3.32 µM (inactive). The GI50 was 4.08 µM (inactive) in the experiment on A549; 2.22 µM (inactive) with MDA-MB-435; 1.36 µM (inactive) in the experiment on HOP-92; 2.77 µM (inactive) in the experiment with SN12C; 1.48 µM (inactive) in the experiment on Malme-3M; 0.472 µM (active) in the experiment on ACHN. The GI50 with 786-0 is 5.36 µM (inactive); with BT-549 it was 2.02 µM (inactive); with SW-620 it was 1.1 µM (active); with NCI-H522, 0.416 µM (active); with NCI/ADR-RES, 2.07 µM (inactive); in the experiment with HCT-15, 0.482 µM. Moreover, the GI50 in the experiment on CCRF-CEM is 3.23 µM (inactive); with T47D, 0.929 µM (active).

Regarding `O=C(O)C1CCCCN1C(=O)Cc1c[nH]c2ccccc12` (stereo not given), the GI50 with MCF7, in the experiment on SK-MEL-28, in the experiment on COLO 205, in the experiment on DU-145, in the experiment with SNB-75 and with OVCAR-8 was > 100 µM (inactive) in each case. The GI50 in the experiment with A549, with MDA-MB-435, with HOP-92, with SN12C, with Malme-3M and in the experiment on ACHN was > 100 µM (inactive) throughout. Moreover, the GI50 in the experiment with 786-0 is > 100 µM (inactive); with BT-549, > 100 µM (inactive); in the experiment on SW-620 it was > 100 µM (inactive); with NCI-H522 it was > 100 µM (inactive); in the experiment on NCI/ADR-RES, > 100 µM (inactive); with HCT-15, greater than 100 µM. Besides, the GI50 in the experiment on CCRF-CEM and with T47D was > 100 µM (inactive) in each case.

In the case of `Cc1ccc(C)c(NC(=O)C(=O)C(c2cnc3ccc([N+](=O)[O-])cc3n2)[N+](=O)[O-])c1` (stereo not given), the GI50 with MCF7 is > 100 µM (inactive); with SK-MEL-28, > 100 µM (inactive); with COLO 205, 60.8 µM (inactive); in the experiment with DU-145, 77.4 µM (inactive); with SNB-75 it was 81.7 µM (inactive); in the experiment on OVCAR-8, 27 µM (inactive). In addition, the GI50 in the experiment on A549 was 58.3 µM (inactive); with MDA-MB-435 it was 46.2 µM (inactive); in the experiment with HOP-92, 36.2 µM (inactive); in the experiment with SN12C, 59.7 µM (inactive); in the experiment on Malme-3M it was > 100 µM (inactive); in the experiment with ACHN, 26.6 µM (inactive). The GI50 in the experiment with 786-0 is 52.8 µM (inactive); with BT-549, 53.5 µM (inactive); in the experiment on SW-620, 30 µM (inactive); in the experiment on NCI-H522, 21.1 µM (inactive); with NCI/ADR-RES it was 25.8 µM (inactive); in the experiment with HCT-15, 76.6 µM. In addition, the GI50 in the experiment on CCRF-CEM is 24.4 µM (inactive); with T47D, 38.5 µM (inactive).

Consider `C[C@@H](c1ccccc1)N1CN(C(=O)OCc2ccccc2)C(C)(C)CC1=O`, for which the GI50 in the experiment with MCF7 is > 100 µM (inactive); in the experiment with SK-MEL-28, 56.9 µM (inactive); with COLO 205, > 100 µM (inactive); in the experiment on DU-145, > 100 µM (inactive); with SNB-75, > 100 µM (inactive); in the experiment on OVCAR-8 it was > 100 µM (inactive). For the same compound, the GI50 with A549, in the experiment on MDA-MB-435, with HOP-92, in the experiment with SN12C, in the experiment on Malme-3M and in the experiment on ACHN was > 100 µM (inactive) each time. Moreover, the GI50 with 786-0 is > 100 µM (inactive); with BT-549 it was > 100 µM (inactive); with SW-620, > 100 µM (inactive); in the experiment with NCI-H522 it was > 100 µM (inactive); in the experiment with NCI/ADR-RES, > 100 µM (inactive); with HCT-15, greater than 100 µM. Further, the GI50 in the experiment with CCRF-CEM was > 100 µM (inactive); with T47D it was 50.6 µM (inactive).

With `c1ccc([P+](CCCCCCCC[P+](c2ccccc2)(c2ccccc2)c2ccccc2)(c2ccccc2)c2ccccc2)cc1`, the GI50 in the experiment with MCF7 is 4.48 µM (inactive); in the experiment on SK-MEL-28 it was 16.9 µM (inactive); in the experiment on COLO 205, 0.91 µM (active); in the experiment on DU-145, 30 µM (inactive); with SNB-75 it was 0.307 µM (active); in the experiment with OVCAR-8, 4.4 µM (inactive). Besides, the GI50 with A549 was 5.73 µM (inactive); with MDA-MB-435, 4.92 µM (inactive); in the experiment on HOP-92 it was 3.07 µM (inactive); in the experiment with SN12C, 3.73 µM (inactive); in the experiment on Malme-3M, 16.4 µM (inactive); with ACHN it was 58.9 µM (inactive). Moreover, the GI50 in the experiment on 786-0 was 16.6 µM (inactive); in the experiment with BT-549 it was 1.99 µM (inactive); in the experiment on SW-620, 6.81 µM (inactive); with NCI-H522, 1.8 µM (inactive); in the experiment with NCI/ADR-RES it was > 100 µM (inactive); in the experiment on HCT-15, greater than 100 µM. Moreover, the GI50 with CCRF-CEM was 9.23 µM (inactive); with T47D, 5.16 µM (inactive).

For the origin of these results see ChEMBL document CHEMBL1201862, “PubChem BioAssay data set” (2004).
